In the NIST ThermoML archive (doi:10.1021/acs.jced.8b01205):
± gives the expanded uncertainty stated by the source.

How the values were obtained:
[1] = Crystal; DSC
[2] = Molar enthalpy of transition or fusion; details: Crystal; DSC

In the case of `N#CCC(N)=O` [2-cyanoethanamide], the Triple point temperature [1] is reported as 392.84 ± 1.2 K and the “Molar enthalpy of transition or fusion” value [2] is reported as 5.41 ± 0.43 kcal/mol.
